Measured values as given in patent US4292317A, “1,4-Dihydro-quinoline-3-carboxylic acid derivatives, process for their preparation and compositions containing them” (Laboratorie Roger Bellon, priority 1977, dated 1981).
Values after ≈ are worked out from the molar mass of the structure shown.

Key:
in vivo = conditions: mouse, mice
Pr. mirabilis Nig = experiment: M.I.C. in vitro, nutrient agar dilution; assay type: cell-based; conditions: Proteus mirabilis, 18 h; Table III; Pr. mirabilis Nig; read-out: M.I.C.
In short: (§1)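 Agar dilution, medium pH 6.8 post-autoclave (120° C.); compound 0.05–100 μg/cm^3, factor-2 series. Inoculum: 10^-3 dilution of 18 h broth culture, multipoint inoculator. 37° C., 18 h. MIC = lowest conc. inhibiting growth.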

S. enteritidis Danysz = experiment: M.I.C. in vitro, nutrient agar dilution; assay type: cell-based; conditions: Salmonella enterica, 18 h; Table III; S. enteritidis Danysz; read-out: M.I.C.
In short: as §1

Ps. aeruginosa A.22 = experiment: M.I.C. in vitro, nutrient agar dilution; assay type: cell-based; conditions: Pseudomonas aeruginosa, 18 h; Table III; Ps. aeruginosa A.22; read-out: M.I.C.
In short: as §1

Esch. coli 111 B4 = experiment: M.I.C. in vitro, nutrient agar dilution; assay type: cell-based; conditions: Escherichia coli, 18 h; Table III; Esch. coli 111 B4
In short: as §1

Providentia 0223 = experiment: M.I.C. in vitro, nutrient agar dilution; assay type: cell-based; conditions: 18 h; Table III; Providentia 0223; read-out: M.I.C.
In short: as §1

B. subtilis = experiment: M.I.C. in vitro, nutrient agar dilution; assay type: cell-based; conditions: Bacillus subtilis, 18 h; Table III; B. Subtilis; read-out: M.I.C.
In short: as §1

Esch. coli 95 I.S.M. = experiment: M.I.C. in vitro, nutrient agar dilution; assay type: cell-based; conditions: Escherichia coli, 18 h; Table III; Esch. coli 95 I.S.M.; read-out: M.I.C.
In short: as §1

Sh. sonnei I.P.S. = experiment: M.I.C. in vitro, nutrient agar dilution; assay type: cell-based; conditions: Shigella sonnei, 18 h; Table III; Sh. sonnei I.P.S.; read-out: M.I.C.
In short: as §1

Pr. vulgaris 12-53 = experiment: M.I.C. in vitro, nutrient agar dilution; assay type: cell-based; conditions: Proteus vulgaris, 1253, 18 h; Table III; Pr. vulgaris 12-53; read-out: M.I.C.
In short: as §1

Pr. morganii A.236 = experiment: M.I.C. in vitro, nutrient agar dilution; assay type: cell-based; conditions: Morganella morganii, 18 h; Table III; Pr. morganii A. 236; read-out: M.I.C.
In short: as §1

Strepto A 561 = experiment: M.I.C. in vitro, nutrient agar dilution; assay type: cell-based; conditions: 18 h; Table III; Strepto A 561
In short: as §1

Staph. 209 P = experiment: M.I.C. in vitro, nutrient agar dilution; assay type: cell-based; conditions: 18 h; Table III; Staph. 209 P; read-out: M.I.C.
In short: as §1

Ps. aeruginosa 72.345 = experiment: M.I.C. in vitro, nutrient agar dilution; assay type: cell-based; conditions: Pseudomonas aeruginosa, 18 h; Table III; Pd. aeruginosa 72.345; read-out: M.I.C.
In short: as §1

Esch. coli 54.127 O.M.S. = experiment: M.I.C. in vitro, nutrient agar dilution; assay type: cell-based; conditions: Escherichia coli, 18 h; Table III; Esch. coli 54.127 O.M.S.; read-out: M.I.C.
In short: as §1

S. oranienburg 1066 = experiment: M.I.C. in vitro, nutrient agar dilution; assay type: cell-based; conditions: Salmonella enterica, 18 h; Table III; S. oranienburg 1066; read-out: M.I.C.
In short: as §1

Staph. 9.144 = experiment: M.I.C. in vitro, nutrient agar dilution; assay type: cell-based; conditions: 18 h; Table III; Staph. 9.144; read-out: M.I.C.
In short: as §1

Bord. bronchis. 4.617 = experiment: M.I.C. in vitro, nutrient agar dilution; assay type: cell-based; conditions: 18 h; Table III; Bord. bronchis. 4.617; read-out: M.I.C.
In short: as §1

Klebs. pneum. 10.031 = experiment: M.I.C. in vitro, nutrient agar dilution; assay type: cell-based; conditions: 18 h; Table III; Klebs. pneum. 10.031; read-out: M.I.C.
In short: as §1

Arizona 6.211 = experiment: M.I.C. in vitro, nutrient agar dilution; assay type: cell-based; conditions: 18 h; Table III; Arizona 6.211; read-out: M.I.C.
In short: as §1

Strepto D.M. 19 = experiment: M.I.C. in vitro, nutrient agar dilution; assay type: cell-based; conditions: 18 h; Table III; Strepto D.M. 19; read-out: M.I.C.
In short: as §1

Serratia = experiment: M.I.C. in vitro, nutrient agar dilution; assay type: cell-based; conditions: 18 h, Table III, read-out: M.I.C.
In short: as §1

Salm. typhi 0901 = experiment: microbe, parasite or virus in culture; assay type: cell-based; conditions: Salmonella enterica, 18 h; Table III; Salm. typhi 0901
In short: as §1

Strept. pyogenes A. 65 [1] = experiment: Systemic infection in mice; assay type: in vivo; conditions: Streptococcus pyogenes, po, 168 h, mice, p.o. at infection and 6 hours later, Strept. pyogenes A. 65, 7 days
Experimental: (§2) The activity of the compounds according to the invention against systemic infections in mice, caused by Staphylococcus 50,774, Streptococcus pyogenes A 65, Pseudomonas aeruginosa No. 12 and Escherichia coli P 5101, has been studied.
(§3) The infections were set up by intraperitoneal injection of a suspension of the bacterial culture corresponding to the germ studied. The products were administered orally at the time of injection, and 6 hours later. […] Aureus and for 7 days for the other germs.
(§4) Oxolinic acid was used as the reference substance.

[2] = test system: Pseudomonas aeruginosa No. 12; experiment: Systemic infection in mice; assay type: in vivo; conditions: po, 168 h, mice, p.o. at infection and 6 hours later, P. aeruginosa No. 12, 7 days
Experimental: as §2, §3, §4

Staph. aureus 50,774 [3] = experiment: Systemic infection in mice; assay type: in vivo; conditions: Staphylococcus aureus, po, 336 h, mice, p.o. at infection and 6 hours later, Staph. aureus 50,774, 14 days
Experimental: as §2, §3, §4

Escherichia coli P 5101 [4] = experiment: Systemic infection in mice; assay type: in vivo; conditions: P5101, po, 168 h, mice, p.o. at infection and 6 hours later, E. coli P 5101, 7 days
Experimental: as §2, §3, §4

Strept. pyogenes A. 65 [5] = experiment: M.I.C. for germ used in experimental infection; assay type: cell-based; conditions: Streptococcus pyogenes, 18 h; Table 4; Strept. pyogenes A. 65; read-out: M.I.C.
Experimental: (§5) After sterilisation at 120° C., the pH was 6.8.
(§6) The minimum inhibitory concentrations (M.I.C.) were determined by dilution of the test compounds in this mixture, the concentration ranging from 0.05 to 100 μg/cm^3 in a geometric progression with a factor of 2.
(§7) The inoculation of the dishes was carried out by means of a multiple inoculator with 10^-3 dilutions of 18 hour old broth cultures.
(§8) The dishes were placed in an oven at 37° C. and the readings were taken afer an incubation time of 18 hours. The M.I.C. was taken as the lowest concentration which inhibited a culture.

[6] = test system: Pseudomonas aeruginosa No. 12; experiment: M.I.C. for germ used in experimental infection; assay type: cell-based; conditions: 18 h, Table 4, P. aeruginosa No. 12, read-out: M.I.C.
Experimental: as §5, §6, §7, §8

Staph. aureus 50,774 [7] = experiment: M.I.C. for germ used in experimental infection; assay type: cell-based; conditions: Staphylococcus aureus, 18 h; Table 4; Staph. aureus 50,774; read-out: M.I.C.
Experimental: as §5, §6, §7, §8

Escherichia coli P 5101 [8] = experiment: M.I.C. for germ used in experimental infection; assay type: cell-based; conditions: P5101, 18 h, Table 4, E. coli P 5101, read-out: M.I.C.
Experimental: as §5, §6, §7, §8

Question: For `C=CCN1CCN(c2cc3c(cc2F)c(=O)c(C(=O)O)cn3CC)CC1` [Example 23, 7-(4-Allylpiperazinyl)-1-ethyl-6-fluoro-4-oxo-1,4-dihydro-quinoline-3-carboxylic acid], which LD50 (in vivo; iv) is on record?
Answer: The LD50 was 177 mg/kg.

Question: What about the LD50 (in vivo; po) of the same compound?
Answer: The LD50 was over 2000 mg/kg.

Question: And the MIC (Pr. mirabilis Nig)?
Answer: The MIC was 0.4 to 0.8 µg/mL (≈ 1.11 to 2.23 µM).

Question: And the MIC (S. enteritidis Danysz)?
Answer: Its MIC is 0.4 µg/mL (≈ 1.11 µM).

Question: And the MIC (Ps. aeruginosa A.22)?
Answer: Its MIC is 1.6 to 3.12 µg/mL (≈ 4.45 to 8.68 µM).

Question: And the MIC (Esch. coli 111 B4)?
Answer: Its MIC is 0.2 to 0.8 µg/mL (≈ 0.556 to 2.23 µM).

Question: And the MIC (Providentia 0223)?
Answer: The MIC was 1.6 to 6.2 µg/mL (≈ 4.45 to 17.3 µM).

Question: And the MIC (B. subtilis)?
Answer: Its MIC is 0.1 to 0.2 µg/mL (≈ 0.278 to 0.556 µM).

Question: What about the MIC (Esch. coli 95 I.S.M.) of the same compound?
Answer: The MIC was 0.1 to 0.4 µg/mL (≈ 0.278 to 1.11 µM).

Question: And the MIC (Sh. sonnei I.P.S.)?
Answer: The MIC was 0.1 to 0.2 µg/mL (≈ 0.278 to 0.556 µM).

Question: And the MIC (Pr. vulgaris 12-53)?
Answer: The MIC was 0.2 to 0.4 µg/mL (≈ 0.556 to 1.11 µM).

Question: And the MIC (Pr. morganii A.236)?
Answer: Its MIC is 0.2 µg/mL (≈ 0.556 µM).

Question: What about the MIC (Strepto A 561) of the same compound?
Answer: The MIC was 1.6 to 6.2 µg/mL (≈ 4.45 to 17.3 µM).

Question: And the MIC (Staph. 209 P)?
Answer: Its MIC is 0.1 to 0.2 µg/mL (≈ 0.278 to 0.556 µM).

Question: And the MIC (Ps. aeruginosa 72.345)?
Answer: The MIC was 3.12 µg/mL (≈ 8.68 µM).

Question: What about the MIC (Esch. coli 54.127 O.M.S.) of the same compound?
Answer: Its MIC is 0.1 to 0.8 µg/mL (≈ 0.278 to 2.23 µM).

Question: What about the MIC (S. oranienburg 1066) of the same compound?
Answer: Its MIC is 6.2 to 12.5 µg/mL (≈ 17.3 to 34.8 µM).

Question: And the MIC (Staph. 9.144)?
Answer: Its MIC is 0.2 µg/mL (≈ 0.556 µM).

Question: And the MIC (Bord. bronchis. 4.617)?
Answer: The MIC was 3.12 µg/mL (≈ 8.68 µM).

Question: And the MIC (Klebs. pneum. 10.031)?
Answer: Its MIC is 0.1 to 0.2 µg/mL (≈ 0.278 to 0.556 µM).

Question: What about the MIC (Arizona 6.211) of the same compound?
Answer: The MIC was 0.2 to 0.8 µg/mL (≈ 0.556 to 2.23 µM).

Question: What about the MIC (Strepto D.M. 19) of the same compound?
Answer: The MIC was 0.8 to 3.15 µg/mL (≈ 2.23 to 8.76 µM).

Question: What about the MIC (Serratia) of the same compound?
Answer: The MIC was 0.025 µg/mL (≈ 0.0696 µM).

Question: And the MIC (Salm. typhi 0901)?
Answer: Its MIC is 0.1 to 0.4 µg/mL (≈ 0.278 to 1.11 µM).

Question: What about the ED50 (Strept. pyogenes A. 65 [1]; read-out: ED50) of the same compound?
Answer: The ED50 was 64.7 mg/kg.

Question: What about the ED90 (Strept. pyogenes A. 65 [1]; read-out: ED90) of the same compound?
Answer: The ED90 was 130 mg/kg.

Question: And the ED50 ([2]; read-out: ED50)?
Answer: Its ED50 is 13.3 mg/kg.

Question: And the ED90 ([2]; read-out: ED90)?
Answer: Its ED90 is 26.9 mg/kg.

Question: What about the ED50 (Staph. aureus 50,774 [3]; read-out: ED50) of the same compound?
Answer: Its ED50 is 5.2 mg/kg.

Question: And the ED90 (Staph. aureus 50,774 [3]; read-out: ED90)?
Answer: Its ED90 is 17 mg/kg.

Question: What about the ED50 (Escherichia coli P 5101 [4]; read-out: ED50) of the same compound?
Answer: The ED50 was 2.9 mg/kg.

Question: And the ED90 (Escherichia coli P 5101 [4]; read-out: ED90)?
Answer: The ED90 was 5.2 mg/kg.

Question: And the MIC (Strept. pyogenes A. 65 [5])?
Answer: Its MIC is 3.13 µg/mL (≈ 8.71 µM).

Question: What about the MIC [6] of the same compound?
Answer: Its MIC is 6.25 µg/mL (≈ 17.4 µM).

Question: What about the MIC (Staph. aureus 50,774 [7]) of the same compound?
Answer: The MIC was 0.39 µg/mL (≈ 1.09 µM).

Question: And the MIC (Escherichia coli P 5101 [8])?
Answer: Its MIC is 0.39 µg/mL (≈ 1.09 µM).
